Active and inactive are the calls of the source. The rule behind the calls is not given here.
What was measured:
MCF7 [1] = assay: Cytotoxicity against human MCF7 cells assessed as reduction in cell viability at 0.625 to 20 uM incubated for 6 days by SRB assay; type: functional, cell-based; settings: dose 0.625-20 µM, time 6.0 day
Quadruplex DNA [2] = settings: time 10.0 min
Quadruplex DNA [3] = settings: time 10.0 min; remark: listed apart in the source
Quadruplex DNA [4] = settings: time 10.0 min; remark: listed apart in the source
Quadruplex DNA [5] = settings: time 10.0 min; remark: listed apart in the source
Quadruplex RNA [6] = settings: time 10.0 min
Quadruplex RNA [7] = settings: time 10.0 min; remark: listed apart in the source
MCF7 [8] = assay: Cytotoxicity against human MCF7 cells assessed as reduction in cell viability incubated for 6 days by SRB assay; type: functional, cell-based; settings: Homo sapiens, MCF7, 144 h

Row | deltaTm1/2 (Quadruplex DNA [2]) | deltaTm1/2 (Quadruplex DNA [3]) | deltaTm1/2 (Quadruplex DNA [4]) | deltaTm1/2 (Quadruplex DNA [5]) | deltaTm1/2 (Quadruplex RNA [6]) | deltaTm1/2 (Quadruplex RNA [7]) | Structure (SMILES) | Activity (MCF7 [1]) | IC50 (MCF7 [8]) | IC25 (MCF7 [8]; time 6 day, read-out: IC25)
1 | 1.5 °C | 4 °C | 10.6 °C | 5.3 °C | 8.1 °C | 1.1 °C | COc1ccc(-c2cc(=O)c3c(OC)c(OC)c(OC)cc3o2)cc1OC |  |  | 
2 | 0.4 °C | -2.6 °C | 3.6 °C | 3.7 °C | 4.2 °C | 0.3 °C | COc1cc(NC(C)CCCN)c2ncccc2c1 (stereo not drawn) |  |  | 
3 | 3.9 °C | 4.4 °C | 9.5 °C | 9.4 °C | 7.5 °C | 3.5 °C | COc1cc(O)c(C(=O)Nc2nc(C(=O)NCCN(C(C)C)C(C)C)cs2)cc1OC |  |  | 
4 | 0.2 °C | 4.4 °C | 5.4 °C | 2.8 °C | 3.2 °C | 1 °C | CCCCOc1cc(C(=O)NCCN(CC)CC)c2ccccc2n1 |  |  | 
5 | > 20 °C | 18.5 °C | > 20 °C | > 20 °C | > 20 °C | 15.4 °C | CCN(CC)CCCC(C)Nc1c2ccc(Cl)cc2nc2ccc(OC)cc12 (stereo not drawn) |  |  | 
6 | 2.4 °C | 1.9 °C | 9.8 °C | 4.3 °C | 9.7 °C | -0.2 °C | CONC(=O)Nc1ccc(-c2sc3c(c2CN(C)C)c(=O)n(-c2ccc(OC)nn2)c(=O)n3Cc2c(F)cccc2F)cc1 |  |  | 

The next lines start with the molecule.

Row | Structure (SMILES) | deltaTm1/2 (Quadruplex DNA [2]) | deltaTm1/2 (Quadruplex DNA [3]) | deltaTm1/2 (Quadruplex DNA [4]) | deltaTm1/2 (Quadruplex DNA [5]) | deltaTm1/2 (Quadruplex RNA [6]) | deltaTm1/2 (Quadruplex RNA [7]) | Activity (MCF7 [1]) | IC50 (MCF7 [8]) | IC25 (MCF7 [8]; time 6 day, read-out: IC25)
7 | CN1CCC[C@@H]1Cc1c[nH]c2ccc(CCS(=O)(=O)c3ccccc3)cc12 | 0.6 °C | 5.2 °C | 6 °C | 4 °C | 4.5 °C | 0.8 °C | Active |  | 
8 | Cn1nnc(-c2ccc(-c3ccc(N4C[C@H](CO)OC4=O)cc3F)cn2)n1 | 1.2 °C | 1 °C | 3 °C | 2.3 °C | 1 °C | 1.2 °C |  |  | 
9 | N[C@@H]1CCCCN(c2c(F)cc3c(=O)c(C(=O)O)cn(C4CC4)c3c2Cl)C1 | 1.3 °C | 1.7 °C | 4.9 °C | -0.3 °C | 2.8 °C | 1.7 °C |  |  | 
10 | COc1c(-c2ccc3cc(NS(C)(=O)=O)ccc3c2)cc(-n2ccc(=O)[nH]c2=O)cc1C(C)(C)C | -0.4 °C | 4.5 °C | 1.4 °C | -0.7 °C | 2.6 °C | -0.3 °C |  |  | 
11 | CCc1cc2c(cc1CC)CC(NC[C@H](O)c1ccc(O)c3[nH]c(=O)ccc13)C2 [INDACATEROL] | 1.5 °C | 5.8 °C | 6.2 °C | 4 °C | 4.9 °C | 0.6 °C |  | 7.4 µM | 4.3 µM
12 | CCn1cc(C(=O)O)c(=O)c2cc(F)c(N3CCN(C)CC3)cc21 | 4.6 °C | 4.5 °C | 8 °C | 1 °C | 9.8 °C | 3.3 °C |  |  | 
13 | CN(C)CCCOc1nn(Cc2ccccc2)c2ccccc12 | 2.5 °C | 3 °C | 8.4 °C | 1.1 °C | 5.1 °C | 0.3 °C |  |  | 
14 | Cc1cc2ncc(C(=O)NCC(C)(C)NCC(=O)N3CCC[C@H]3C#N)cn2n1 | -0.1 °C | 5.4 °C | 3.1 °C | -0.9 °C | 1.9 °C | 0.4 °C |  |  | 
15 | CCc1cc2c(cc1N1CCC(N3CCOCC3)CC1)C(C)(C)c1[nH]c3cc(C#N)ccc3c1C2=O | 0 °C | -3.3 °C | 2.5 °C | -1.1 °C | 4.6 °C | 1.1 °C |  |  | 
